Laboratory results: PubChem BioAssay (NCI)
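Test compounds were applied to cells in 96-well plates for 48 hours at 5 doses. TGI: concentration producing complete growth inhibition.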

Assays:
Assay in all cases: inhibition of tumour cell growth, NCI panel, 48 h
[1] = tested on: HS 578T breast
[2] = tested on: UACC-257 melanoma
[3] = tested on: BT-549 breast
[4] = tested on: NCI-H226 lung
[5] = tested on: DU-145 prostate
[6] = tested on: 786-0 renal
[7] = tested on: SF-539 CNS
[8] = tested on: SK-MEL-28 melanoma
[9] = tested on: UACC-62 melanoma
[10] = tested on: SNB-19 CNS
[11] = tested on: NCI/ADR-RES ovarian
[12] = tested on: IGROV1 ovarian
[13] = tested on: HOP-62 NSCLC
[14] = tested on: RXF 393 renal
[15] = tested on: SK-MEL-5 melanoma
[16] = tested on: HCT-116 colon
[17] = tested on: MALME-3M melanoma
[18] = tested on: A549 NSCLC

Compound	TGI [1] [µM]	TGI [2] [µM]	TGI [3] [µM]	TGI [4] [µM]	TGI [5] [µM]	TGI [6] [µM]	TGI [7] [µM]	TGI [8] [µM]	TGI [9] [µM]	TGI [10] [µM]	TGI [11] [µM]	TGI [12] [µM]	TGI [13] [µM]	TGI [14] [µM]	TGI [15] [µM]	TGI [16] [µM]	TGI [17] [µM]	TGI [18] [µM]
NC(=O)N/N=C/c1ccccc1O	> 100	> 100	> 100	> 100	> 100	> 100	> 100	> 100	> 100	> 100	> 100	> 100	> 100	> 100	> 100	> 100		
C/C(CC(O)(C(F)(F)F)C(F)(F)F)=N/Nc1ccc([N+](=O)[O-])cc1[N+](=O)[O-]	7.85	> 10		6.66	> 10	> 10	> 10	> 10	> 10	> 10	> 10	> 10	9.15	7.53	4	4.56	> 10	> 10
C#CC1(O)CC(c2ccccc2)N(C)C(c2ccccc2)C1 (stereo not given)		> 100		> 100		> 100	> 100	> 100	> 100	> 100		> 100	> 100	> 100	> 100	32.4	> 100	> 100
Cc1nc2c(s/c(=N\N)n2-c2ccccc2)c(=O)n1C		> 100		> 100		> 100	> 100	> 100	> 100	> 100		> 100		> 100	> 100	> 100		> 100
O=c1[nH]c(Br)nc2c(N3CCCCC3)c[nH]c12		> 100		> 100		> 100	> 100	> 100	> 100	> 100		> 100	> 100	> 100	> 100	> 100	> 100	> 100
N=c1oc2ccc(Cl)cc2cc1C(=O)NC1CCCCC1	> 100	> 100	> 100	> 100	> 100	> 100	> 100	> 100	> 100	> 100	> 100	> 100	> 100	> 100	> 100	> 100		> 100
COc1cc(OC)cc(Oc2nc3c(N)cc(C(F)(F)F)cc3nc2-c2ccccc2)c1	> 100	> 100	> 100	> 100		> 100	> 100	> 100	> 100	> 100	> 100	> 100	> 100	> 100	> 100	> 100		
Cc1cccc(/C=C2\CCCCCC2=O)c1	> 100	> 100	> 100	> 100	> 100	> 100		> 100	> 100	> 100		> 100	> 100		> 100	> 100	> 100	> 100
